From patent US12581252B2, “Substituted pyrrolo[3,4-b]pyridines as PI3K-α inhibitors” (Relay Therapeutics, Inc., priority 2020, dated 2026)

Molecular target: H1047R PIK3CA enzyme (Homo sapiens, UniProt P42336, H1047R)
Assay: ADP-Glo Biochemical PIK3CA Kinase Assay

Chain of H1047R PIK3CA enzyme (P42336 whole entry H1047R): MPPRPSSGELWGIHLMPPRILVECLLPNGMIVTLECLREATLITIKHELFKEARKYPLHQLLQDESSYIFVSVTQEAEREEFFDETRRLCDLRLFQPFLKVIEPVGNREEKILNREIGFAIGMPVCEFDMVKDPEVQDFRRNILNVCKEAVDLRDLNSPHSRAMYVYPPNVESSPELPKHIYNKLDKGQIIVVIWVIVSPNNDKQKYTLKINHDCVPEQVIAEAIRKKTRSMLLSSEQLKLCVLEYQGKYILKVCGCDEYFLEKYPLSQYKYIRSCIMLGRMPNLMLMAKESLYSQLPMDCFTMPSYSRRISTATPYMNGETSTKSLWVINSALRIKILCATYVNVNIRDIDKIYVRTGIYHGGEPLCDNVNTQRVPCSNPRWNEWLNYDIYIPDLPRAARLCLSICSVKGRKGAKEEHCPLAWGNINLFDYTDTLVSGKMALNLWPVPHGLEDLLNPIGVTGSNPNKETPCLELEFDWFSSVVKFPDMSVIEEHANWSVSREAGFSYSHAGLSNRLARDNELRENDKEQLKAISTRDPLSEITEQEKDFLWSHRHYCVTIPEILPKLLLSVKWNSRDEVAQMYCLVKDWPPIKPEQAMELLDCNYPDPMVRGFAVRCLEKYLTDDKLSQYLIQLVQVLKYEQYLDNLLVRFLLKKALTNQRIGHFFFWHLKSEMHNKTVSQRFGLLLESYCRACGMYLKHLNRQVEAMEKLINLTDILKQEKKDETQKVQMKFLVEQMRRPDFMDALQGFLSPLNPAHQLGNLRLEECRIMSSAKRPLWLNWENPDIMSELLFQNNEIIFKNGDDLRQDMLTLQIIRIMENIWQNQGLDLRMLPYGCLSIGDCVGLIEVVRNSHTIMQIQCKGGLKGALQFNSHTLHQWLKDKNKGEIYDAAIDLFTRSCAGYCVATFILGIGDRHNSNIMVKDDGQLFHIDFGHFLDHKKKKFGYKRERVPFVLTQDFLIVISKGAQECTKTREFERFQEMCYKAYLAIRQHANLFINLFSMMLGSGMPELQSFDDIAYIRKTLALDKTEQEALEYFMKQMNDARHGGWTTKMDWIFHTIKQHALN
Chain of H1047R PIK3CA enzyme (P27986 whole entry partner): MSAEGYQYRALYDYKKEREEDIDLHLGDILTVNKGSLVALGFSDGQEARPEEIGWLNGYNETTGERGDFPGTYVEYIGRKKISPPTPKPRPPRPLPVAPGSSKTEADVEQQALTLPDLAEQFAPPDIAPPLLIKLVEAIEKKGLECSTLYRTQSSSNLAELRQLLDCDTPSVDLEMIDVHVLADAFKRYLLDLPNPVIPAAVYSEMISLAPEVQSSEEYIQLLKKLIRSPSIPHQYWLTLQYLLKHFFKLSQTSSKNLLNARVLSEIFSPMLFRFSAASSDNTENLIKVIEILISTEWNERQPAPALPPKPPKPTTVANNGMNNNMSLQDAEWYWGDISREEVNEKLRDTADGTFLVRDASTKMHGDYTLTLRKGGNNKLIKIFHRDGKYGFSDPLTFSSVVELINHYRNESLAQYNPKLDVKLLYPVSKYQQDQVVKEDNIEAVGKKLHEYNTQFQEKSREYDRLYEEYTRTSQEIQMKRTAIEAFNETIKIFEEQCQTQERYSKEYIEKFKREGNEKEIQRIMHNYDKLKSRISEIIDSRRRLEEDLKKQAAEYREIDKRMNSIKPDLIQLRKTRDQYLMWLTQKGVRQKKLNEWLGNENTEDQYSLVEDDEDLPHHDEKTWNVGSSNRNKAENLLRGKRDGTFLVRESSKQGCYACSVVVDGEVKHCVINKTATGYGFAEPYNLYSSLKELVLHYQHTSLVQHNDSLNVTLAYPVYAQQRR

IC50 | Structure (SMILES)
100 to 500 nM | CC(=O)Cc1cc(NC(=O)c2cc(F)cc(C(F)(F)F)c2)c2c(c1)C(=O)N[C@H]2c1cc(F)ccc1Cl [Compound I-624]
1000 to 10000 nM | Cn1cc(Oc2cc(NC(=O)c3cc(F)cc(C(F)(F)F)c3)c3c(c2)C(=O)NC3c2cc(F)ccc2Cl)cn1 (centres unmarked) [Compound I-1120]
10000 to 100000 nM | CC[C@@H](CC(=O)Nc1cccc2c1[C@@H](c1cc(F)ccc1Cl)NC2=O)[C@H](C)C(F)(F)F (single isomer, unassigned) [Compound I-2337]
100 to 500 nM | Cn1ccc(-c2cc(NC(=O)c3cc(F)cc(Cl)c3)c3c(n2)C(=O)NC3c2cc(F)ccc2Cl)cc1=O (centres unmarked) [Compound I-499]
100 to 500 nM | O=C(Nc1cccc2c1C(c1ccccc1Br)NC2=O)c1cc(F)cc(C(F)(F)F)c1 (centres unmarked) [Compound I-325]
≤ 100 nM | Nc1nc2ccc(-c3cc(NC(=O)c4cc(F)cc(C(F)(F)F)c4)c4c(c3)C(=O)N[C@H]4c3cc(F)ccc3Cl)cn2n1 [Compound I-1445]
100 to 500 nM | O=C(Nc1cc(C#CC2CC(F)(F)C2)cc2c1C(c1cc(F)ccc1Cl)NC2=O)c1cc(F)cc(C(F)(F)F)c1 (centres unmarked) [Compound I-1194]
≤ 100 nM | O=C(Nc1cc(-c2ccc(=O)n(C3CC3)c2)cc2c1C(c1cc(F)ccc1Cl)NC2=O)c1cc(F)cc(C(F)(F)F)c1 (centres unmarked) [Compound I-700]
10000 to 100000 nM | NS(=O)(=O)c1cc(-c2ccc3ncnn3c2)cc2c1C(c1cc(F)ccc1Cl)NC2=O (centres unmarked) [Compound I-1970]
100 to 500 nM | COC(=O)c1cc(NC(=O)c2nsc3ccccc23)c2c(n1)C(=O)NC2c1ccccc1Cl (centres unmarked) [Compound I-222, Methyl 4-(1,2-benzothiazole-3-amido)-5-(2-chlorophenyl)-7-oxo-5H,6H,7H-pyrrolo[3,4-b]pyridine-2-carboxylate]
1000 to 10000 nM | COc1cc(F)cc(C(=O)Nc2cccc3c2C(c2ccccc2C)NC3=O)c1 (centres unmarked) [Compound I-340]
10000 to 100000 nM | O=C(Nc1cccc2c1[C@H](NC1CCCC1)NC2=O)c1cc(F)cc(C(F)(F)F)c1 (single isomer, unassigned) [Compound I-2250]
10000 to 100000 nM | O=C1NC(c2cc(F)ccc2Cl)c2c1cccc2-n1cc2ccccc2cc1=O (centres unmarked) [Compound I-1580]
100 to 500 nM | NC1CN(c2cc(NC(=O)c3cc(F)cc(C(F)(F)F)c3)c3c(n2)C(=O)NC3c2cc(F)ccc2Cl)C1 (centres unmarked) [Compound I-417]
1000 to 10000 nM | N#Cc1nn(C(F)F)cc1-c1cc(NC(=O)c2cc(F)cc(C(F)(F)F)c2)c2c(c1)C(=O)N[C@@H]2c1cc(F)ccc1Cl [Compound I-1889]
10000 to 100000 nM | O=C(Nc1cc(-c2ccc3ncnn3c2)nc2c1C(C1CCCCO1)NC2=O)c1cc(F)cc(C(F)(F)F)c1 (centres unmarked) [Compound I-1706]
100 to 500 nM | O=C(Nc1cc(Br)cc2c1C(c1cc(F)ccc1Cl)NC2=O)NC12CC3CC(CC(C3)C1)C2 (centres unmarked) [Compound I-1257]
1000 to 10000 nM | O=C1NC(c2cc(F)ccc2Cl)c2c(NC(=O)N3CCC(F)(F)C3)cc(Br)cc21 (centres unmarked) [Compound I-482]
≤ 100 nM | O=C(Nc1cc(-c2cnn(S(=O)(=O)C(F)F)c2)cc2c1[C@H](c1cc(F)ccc1Cl)NC2=O)c1cc(F)cc(C(F)(F)F)c1 [Compound I-2093]
1000 to 10000 nM | O=C1N[C@H](c2cc(F)ccc2Cl)c2c(NC(=O)N3C[C@H](O)c4cc(F)ccc43)cc(-n3cccn3)cc21 (single isomer, unassigned) [Compound I-2367]
≤ 100 nM | N#Cc1cnc2cnc(-c3cc(NC(=O)c4cc(F)cc(C(F)(F)F)c4)c4c(c3)C(=O)N[C@H]4c3cc(F)ccc3Cl)cn12 [Compound I-1923]

IC50 | Structure (SMILES)
500 to 1000 nM | O=C1N[C@H](c2cc(F)ccc2Cl)c2c(NC(=O)N3C[C@H](O)c4c(F)cccc43)cccc21 (single isomer, unassigned) [Compound I-2143]
100 to 500 nM | Cc1ccccc1C1NC(=O)c2cccc(NC(=O)c3ccn4ccccc34)c21 (centres unmarked) [Compound I-61]
100 to 500 nM | CC(=O)N1CC2(C1)CN(c1cc(NC(=O)c3cc(F)cc(C(F)(F)F)c3)c3c(c1)C(=O)NC3c1cc(F)ccc1Cl)C2 (centres unmarked) [Compound I-1301]
1000 to 10000 nM | O=C(Nc1cc(NC2COC2)cc2c1[C@@H](c1cc(F)ccc1Cl)NC2=O)c1cc(F)cc(C(F)(F)F)c1 [Compound I-830]
100 to 500 nM | O=C1N[C@@H](c2cc(F)ccc2Cl)c2c(NC(=O)N3C[C@H](O)c4ccccc43)cc(-c3ccc4ncnn4c3)cc21 (single isomer, unassigned) [Compound I-1576]
10000 to 100000 nM | CC(C)(O)Cc1cc(F)cc(C(=O)Nc2cc(CC(C)(C)O)cc3c2C(c2cc(F)ccc2Cl)NC3=O)c1 (centres unmarked) [Compound I-696]
1000 to 10000 nM | O=C1NC(c2cc(F)ccc2Cl)c2c(NC(=O)N3C[C@@H](C(F)(F)F)[C@@H](O)C3)cc(-c3ccc4ncnn4c3)cc21 (single isomer, unassigned) [Compound I-1978]
1000 to 10000 nM | O=C1N[C@H](c2cc(F)ccc2Cl)c2c(NC(=O)N3C[C@@H](O)c4cc(F)ccc43)cc(-n3ccnn3)cc21 (single isomer, unassigned) [Compound I-2371]
1000 to 10000 nM | O=C(CCc1ccccc1C(F)(F)F)Nc1cc(Br)cc2c1C(c1cc(F)ccc1Cl)NC2=O (centres unmarked) [Compound I-600]
100 to 500 nM | CC(C)(C)OC(=O)NCCSc1cc(NC(=O)c2cc(F)cc(C(F)(F)F)c2)c2c(c1)C(=O)NC2c1cc(F)ccc1Cl (centres unmarked) [Compound I-1297]
≤ 100 nM | CN1C[C@@H](Nc2cc(NC(=O)c3cc(F)cc(C(F)(F)F)c3)c3c(c2)C(=O)NC3c2cc(F)ccc2Cl)CC1=O (single isomer, unassigned) [Compound I-375]
≤ 100 nM | CCn1cc(-c2cc(NC(=O)c3cc(F)cc(C(F)(F)F)c3)c3c(c2)C(=O)NC3c2cc(F)ccc2Cl)ccc1=O (centres unmarked) [Compound I-649]
≤ 100 nM | CC1(Cc2cc(NC(=O)c3cc(F)cc(C(F)(F)F)c3)c3c(c2)C(=O)NC3c2cc(F)ccc2Cl)COC1 (centres unmarked) [Compound I-710]
500 to 1000 nM | COc1cc(F)cc(C(=O)Nc2cc(Br)cc3c2C(c2cc(F)ccc2Cl)NC3=O)c1 (centres unmarked) [Compound I-800]
1000 to 10000 nM | O=C(Nc1cc(Br)cc2c1[C@@H](c1c(F)cccc1Cl)NC2=O)c1cc(F)cc(C(F)(F)F)c1 [Compound I-679]
10000 to 100000 nM | O=C(Nc1cc(-c2ccc3ncnn3c2)cc2c1[C@@H](c1cc(F)ccc1Cl)NC2=O)c1cc(F)cc(C(F)F)c1 (stereo in doubt) [Compound I-1172]
≤ 100 nM | O=C(Nc1cc(C#Cc2ccccn2)cc2c1C(c1cc(F)ccc1Cl)NC2=O)c1cc(F)cc(C(F)(F)F)c1 (centres unmarked) [Compound I-1185]
1000 to 10000 nM | CSc1nc(NC(=O)c2cc(F)cc(C(F)(F)F)c2)c2c(n1)C(=O)NC2c1ccccc1Cl (centres unmarked) [Compound I-183]
≤ 100 nM | O=C(Nc1cc(CS(=O)(=O)c2ccccc2)cc2c1[C@H](c1cc(F)ccc1Cl)NC2=O)c1cc(F)cc(C(F)(F)F)c1 [Compound I-1591]
1000 to 10000 nM | O=C(Nc1cc(Br)cc2c1[C@@H](c1cccc(F)c1F)NC2=O)c1cc(F)cc(C(F)(F)F)c1 [Compound I-683]
100 to 500 nM | NCCc1cc(NC(=O)N2C[C@](O)(C(F)(F)F)c3cc(F)ccc32)c2c(c1)C(=O)N[C@H]2c1cc(F)ccc1Cl (single isomer, unassigned) [Compound I-2582]

IC50 | Structure (SMILES)
100 to 500 nM | Cc1ccccc1C1NC(=O)c2cc(NS(C)(=O)=O)cc(NC(=O)c3cc(F)cc(C(F)(F)F)c3)c21 (centres unmarked) [Compound I-56]
100 to 500 nM | Cc1ccccc1[C@H]1NC(=O)c2cc(C(=O)NCC(F)F)cc(NC(=O)c3nsc4ccccc34)c21 [Compound I-165]
1000 to 10000 nM | CS(=O)(=O)Nc1cc(-c2ccc3ncnn3c2)cc2c1C(c1cc(F)ccc1Cl)NC2=O (centres unmarked) [Compound I-1898]
10000 to 100000 nM | O=C1N[C@H](c2cc(F)ccc2Cl)c2c(NC(=O)[C@H]3CC(C(F)(F)F)C[C@@H](O)C3)cc(Br)cc21 (single isomer, unassigned) [Compound I-2274]
1000 to 10000 nM | O=C1N[C@@H](c2cc(F)ccc2Cl)c2c(NC(=O)N3C[C@@](O)(C(F)(F)F)c4cc(F)ccc43)ccc(-n3ccnn3)c21 (single isomer, unassigned) [Compound I-2523]
10000 to 100000 nM | O=C(Nc1ccc(C(F)(F)F)cc1)c1cccc2c1C(c1cc(F)ccc1Cl)NC2=O (centres unmarked) [Compound I-2316]
≤ 100 nM | N#Cc1cnc2ncc(-c3cc(NC(=O)c4cc(F)cc(C(F)(F)F)c4)c4c(c3)C(=O)NC4c3cc(F)ccc3Cl)cn12 (centres unmarked) [Compound I-1796]
1000 to 10000 nM | Nc1cc(NC(=O)N2C[C@H](O)c3cc(F)ccc32)c2c(c1)C(=O)N[C@@H]2c1cc(F)ccc1Cl (single isomer, unassigned) [Compound I-2412]
≤ 100 nM | O=C(Nc1cc(OCC2CCO2)cc2c1C(c1cc(F)ccc1Cl)NC2=O)c1cc(F)cc(C(F)(F)F)c1 (racemic) [Compound I-1366]
≤ 100 nM | Cc1ccccc1C1NC(=O)c2c(CCO)ccc(NC(=O)c3nsc4ccccc34)c21 (centres unmarked) [Compound I-434]
≤ 100 nM | O=C(Nc1cc(CS(=O)(=O)N2CCOCC2)cc2c1[C@H](c1cc(F)ccc1Cl)NC2=O)c1cc(F)cc(C(F)(F)F)c1 [Compound I-1485]
1000 to 10000 nM | CC(C)n1cc(-c2cc(NC(=O)c3cc(F)cc(C(F)(F)F)c3)c3c(c2)C(=O)N[C@@H]3c2cc(F)ccc2Cl)ccc1=O [Compound I-742]
100 to 500 nM | COCCNc1cc(NC(=O)c2cc(F)cc(C(F)(F)F)c2)c2c(n1)C(=O)NC2c1cc(F)ccc1Cl (centres unmarked) [Compound I-288]
10000 to 100000 nM | O=C1NC(c2cc(F)ccc2Cl)c2c(NC(=O)C3(c4ccccc4)COC3)cc(Br)cc21 (centres unmarked) [Compound I-632]
≤ 100 nM | N#Cc1cnc2cc(F)c(-c3cc(NC(=O)c4cc(F)cc(C(F)(F)F)c4)c4c(c3)C(=O)N[C@H]4c3cc(F)ccc3Cl)cn12 [Compound I-1884]
100 to 500 nM | O=C(Nc1cc(-c2cccnc2)nc2c1C(c1cc(F)ccc1Cl)NC2=O)c1cc(F)cc(Cl)c1 (centres unmarked) [Compound I-455]
1000 to 10000 nM | O=C(Nc1cccc2c1C(c1ccc(-c3ccccc3)cc1Cl)NC2=O)c1cc(F)cc(C(F)(F)F)c1 (centres unmarked) [Compound I-421]
≤ 100 nM | CNC(=O)n1cc(-c2cc(NC(=O)c3cc(F)cc(C(F)(F)F)c3)c3c(c2)C(=O)NC3c2cc(F)ccc2Cl)cn1 (centres unmarked) [Compound I-1505]
10000 to 100000 nM | O=C1NC(c2cc(F)ccc2Cl)c2c(C#Cc3ccccc3)cccc21 (centres unmarked) [Compound I-2097]
100 to 500 nM | O=C(Nc1cc(Br)cc2c1C(c1cc(F)ccc1Cl)NC2=O)c1ccc(F)c(OC(F)(F)F)c1 (centres unmarked) [Compound I-516]
